Assay results reported in patent publication US20250009765A1, “COMPOSITIONS AND METHODS FOR REDUCING SLEEP DI[…] TREATING SLEEP DISORDERS” (FloraScience Inc., priority 2023, published 2025).

Experiments:
Type in all cases: in vivo, human
sleep disturbance [1] = test: PROMIS Sleep Disturbance 8A survey, randomized blinded placebo-controlled study; conditions: for Relative Risk for meaningful clinical improvement on the PROMIS Sleep Disturbance 8A / Estimated marginal percentage achieving meaningful clinical improvement on the PROMIS Sleep 8A: 95% CI in parentheses; for Observed % Achieving Meaningful Clinical Improvement on the PROMIS Sleep 8A: 30% or greater reduction from baseline; for % experiencing MCID in PROMIS Sleep Disturbance 8A score: MCID = score reduction of one half the standard deviation of the baseline score; for Estimated marginal percentage achieving meaningful clinical improvement on the PROMIS Sleep 8A: improvement = 30% or greater reduction from baseline; for Parameter Estimate for PROMIS Sleep Disturbances 8a, Treatment: reference placebo, linear mixed-effects model
Experimental: (§1) The primary aim of this study was to assess the effects of three different formulations of TruCBN softgels and a formulation of 4 mg melatonin on sleep quality, relative to placebo control. There were 5 arms within the study; (1) 4 mg melatonin, (2) 25 mg CBN, (3) 50 mg CBN, (4) 100 mg CBN, and (5) placebo (see Table 1 for further details on study arm formulations). All study arms provided the test article as a softgel. Participants were instructed to take 1 softgel 1-2 hours before bed. To ensure that results were not biased, participants were randomly assigned to product, were blinded to the contents, and were not told what they were taking until the conclusion of the study. The secondary aim of the study was to assess the tolerability of the three formulations of TruCBN softgels and 4 mg melatonin, relative to placebo.
(§2) Study participants were at least 21 years old, endorsed a desire for better sleep quality, and expressed interest in taking a cannabinoid product to improve their sleep. The study was entirely virtual; participants were recruited through online recruitment channels, study product was delivered directly to participants' homes, and all data were collected via online surveys delivered to their mobile device or computer. There were four phases of the study (see FIG. 1 for study timeline): (1) Recruitment and Randomization, (2) Baseline (1 week), (3) Study period (2-5 weeks), and (4) Conclusion.
PROMIS™ Sleep Disturbance 8A: An 8-question survey, with severity thresholds based on T-scores not raw scores. The severity scores are established as follows: • “None to slight”=Less than 55 • “Mild”=55.0-59.9 • “Moderate”=60.0-69.9 • “Severe”=70 and up
The range of raw scores were from 8 to 40, with higher scores translating to greater sleep disturbance (i.e., worse sleep quality). PROMIS™ Sleep Disturbance 8A threshold for minimally important difference: One-half the standard deviation of the baseline score (Purvis, Taylor E. et al., SPINE, 2018, 43(21):1512-1520).
(§3) After receiving study product, each participant was instructed to take 1 softgel each day orally 1-2 hours before bed and complete weekly health and product use surveys. This phase of the study lasted about 4 weeks.
(§4) For precision, adjustments were made for sex, age, race, ethnicity, and body mass index (BMI) in every model. […] Analysis was conducted using Stata 17 and R. An intent-to-treat analysis was run, meaning that all participants who were assigned product (aside from the aforementioned exclusions) were included in the analysis according to their product assignment, regardless of product adherence or study attrition. Visuals of the predicted marginal means of health scores, rather than the raw mean scores, were prepared. Predicted marginal means were calculated from the statistical models and better represent the true differences between arms adjusting for any potential imbalances across arms. A finding that was “significant” means that the likelihood of falsely rejecting the null hypothesis that there were no differences between groups was very small (less than 5%; i.e., the p-value was less than 0.05). In other words, when certain findings were said to be “significant” they are not considered the result of random variation.

sleep disturbance [2] = test: PROMIS Sleep Disturbance SF4A survey, randomized blinded placebo-controlled study; conditions: for Relative Risk for meaningful clinical improvement on the PROMIS Sleep SF4A / Estimated marginal percentage achieving meaningful clinical improvement on the PROMIS Sleep SF4A: 95% CI in parentheses; for Observed % Achieving Meaningful Clinical Improvement on the PROMIS Sleep SF4A: 30% or greater reduction from baseline; for Estimated marginal percentage achieving meaningful clinical improvement on the PROMIS Sleep SF4A: improvement = 30% or greater reduction from baseline
Experimental: as §1, §2
The PROMIS™ Sleep Disturbance SF4A threshold for minimally important difference: One-half the standard deviation of the baseline score (Norman, G. R. et al., Med. Care, 2003, 41:582-592).
as §3, §4

sleep disturbance [3] = test: Participant global impression of change (PGIC) in sleep disturbance; conditions: for Odds Ratio (95% Confidence interval), sleep disturbance PGIC: Dunnett correction; for Parameter estimate for PGIC in sleep disturbance: treatment reference placebo, log-odds scale
Experimental: as §1
Participants received a final study survey asking about their overall experiences and impressions. Afterwards they also receive a Report containing their individualized data.
as §4

[4] = Average time to effect reported by participants; conditions: oral
Experimental: as §3
Participants reported experiencing an effect between 46 and 55 minutes after taking their study product.

[5] = Tolerability: side effects reported by participants
Experimental: as §1, §3
The side effects for all study arms were similar in frequency and mostly mild; none were considered serious or required use of emergency or non-emergency healthcare services. The most commonly reported side effect was grogginess or drowsiness (see FIG. 7). Additional side effects reported by some participants included: chest pain, constipation, urinary tract infection, tingling in lips, dry mouth, weight gain, dry or itchy eyes, low libido, rash, and brain fog.

CCCCCc1cc(O)c2c(c1)OC(C)(C)c1ccc(C)cc1-2 [CBN, 6,6,9-trimethyl-3-pentyl-benzo[c]chromen-1-ol]
Relative Risk for meaningful clinical improvement on the PROMIS Sleep Disturbance 8A (sleep disturbance [1]; 25 mg CBN − placebo): 1.33 (0.65, 2.01)
Observed % Achieving Meaningful Clinical Improvement on the PROMIS Sleep 8A (sleep disturbance [1]; 25 mg CBN): 46.7%
% experiencing MCID in PROMIS Sleep Disturbance 8A score (sleep disturbance [1]; 25 mg CBN): 46.7%
Estimated marginal percentage achieving meaningful clinical improvement on the PROMIS Sleep 8A (sleep disturbance [1]; 25 mg CBN): 47.1% (35.41%, 62.66%)
Parameter Estimate for PROMIS Sleep Disturbances 8a, Treatment (sleep disturbance [1]; 25 mg CBN): 0.14
Estimated marginal mean, PROMIS Sleep Disturbance 8A (sleep disturbance [1]; 25 mg CBN, week 1): 21.6
Estimated marginal mean, PROMIS Sleep Disturbance 8A (sleep disturbance [1]; 25 mg CBN, week 2): 20.6
Estimated marginal mean, PROMIS Sleep Disturbance 8A (sleep disturbance [1]; 25 mg CBN, week 3): 21.3
Estimated marginal mean, PROMIS Sleep Disturbance 8A (sleep disturbance [1]; 25 mg CBN, week 4): 20.9
Relative Risk for meaningful clinical improvement on the PROMIS Sleep Disturbance 8A (sleep disturbance [1]; 50 mg CBN − placebo): 1.46 (0.72, 2.2)
Observed % Achieving Meaningful Clinical Improvement on the PROMIS Sleep 8A (sleep disturbance [1]; 50 mg CBN): 53.6%
% experiencing MCID in PROMIS Sleep Disturbance 8A score (sleep disturbance [1]; 50 mg CBN): 53.6%
Estimated marginal percentage achieving meaningful clinical improvement on the PROMIS Sleep 8A (sleep disturbance [1]; 50 mg CBN): 51.6% (38.93%, 68.48%)
Parameter Estimate for PROMIS Sleep Disturbances 8a, Treatment (sleep disturbance [1]; 50 mg CBN): 0.28
Estimated marginal mean, PROMIS Sleep Disturbance 8A (sleep disturbance [1]; 50 mg CBN, week 1): 20.4
Estimated marginal mean, PROMIS Sleep Disturbance 8A (sleep disturbance [1]; 50 mg CBN, week 2): 21
Estimated marginal mean, PROMIS Sleep Disturbance 8A (sleep disturbance [1]; 50 mg CBN, week 3): 20.7
Estimated marginal mean, PROMIS Sleep Disturbance 8A (sleep disturbance [1]; 50 mg CBN, week 4): 20.3
Relative Risk for meaningful clinical improvement on the PROMIS Sleep Disturbance 8A (sleep disturbance [1]; 100 mg CBN − placebo): 1.39 (0.7, 2.08)
Observed % Achieving Meaningful Clinical Improvement on the PROMIS Sleep 8A (sleep disturbance [1]; 100 mg CBN): 50.0%
% experiencing MCID in PROMIS Sleep Disturbance 8A score (sleep disturbance [1]; 100 mg CBN): 50.0%
Estimated marginal percentage achieving meaningful clinical improvement on the PROMIS Sleep 8A (sleep disturbance [1]; 100 mg CBN): 49.1% (36.96%, 65.24%)
Parameter Estimate for PROMIS Sleep Disturbances 8a, Treatment (sleep disturbance [1]; 100 mg CBN): 0.59
Estimated marginal mean, PROMIS Sleep Disturbance 8A (sleep disturbance [1]; 100 mg CBN, week 1): 20.99
Estimated marginal mean, PROMIS Sleep Disturbance 8A (sleep disturbance [1]; 100 mg CBN, week 2): 21.77
Estimated marginal mean, PROMIS Sleep Disturbance 8A (sleep disturbance [1]; 100 mg CBN, week 3): 20.84
Estimated marginal mean, PROMIS Sleep Disturbance 8A (sleep disturbance [1]; 100 mg CBN, week 4): 20.9
Relative Risk for meaningful clinical improvement on the PROMIS Sleep SF4A (sleep disturbance [2]; 25 mg CBN − placebo): 1.35 (0.66, 2.03)
Observed % Achieving Meaningful Clinical Improvement on the PROMIS Sleep SF4A (sleep disturbance [2]; 25 mg CBN): 47.83%
Estimated marginal percentage achieving meaningful clinical improvement on the PROMIS Sleep SF4A (sleep disturbance [2]; 25 mg CBN): 46.28% (34.73%, 61.7%)
Estimated marginal mean, PROMIS Sleep Disturbance SF4A (sleep disturbance [2]; 25 mg CBN, week 1): 11.0
Estimated marginal mean, PROMIS Sleep Disturbance SF4A (sleep disturbance [2]; 25 mg CBN, week 2): 10.81
Estimated marginal mean, PROMIS Sleep Disturbance SF4A (sleep disturbance [2]; 25 mg CBN, week 3): 11.1
Estimated marginal mean, PROMIS Sleep Disturbance SF4A (sleep disturbance [2]; 25 mg CBN, week 4): 10.9
Relative Risk for meaningful clinical improvement on the PROMIS Sleep SF4A (sleep disturbance [2]; 50 mg CBN − placebo): 1.59 (0.81, 2.37)
Observed % Achieving Meaningful Clinical Improvement on the PROMIS Sleep SF4A (sleep disturbance [2]; 50 mg CBN): 58.33%
Estimated marginal percentage achieving meaningful clinical improvement on the PROMIS Sleep SF4A (sleep disturbance [2]; 50 mg CBN): 54.76% (41.80%, 71.7%)
Estimated marginal mean, PROMIS Sleep Disturbance SF4A (sleep disturbance [2]; 50 mg CBN, week 1): 10.7
Estimated marginal mean, PROMIS Sleep Disturbance SF4A (sleep disturbance [2]; 50 mg CBN, week 2): 10.9
Estimated marginal mean, PROMIS Sleep Disturbance SF4A (sleep disturbance [2]; 50 mg CBN, week 3): 10.8
Estimated marginal mean, PROMIS Sleep Disturbance SF4A (sleep disturbance [2]; 50 mg CBN, week 4): 10.3
Relative Risk for meaningful clinical improvement on the PROMIS Sleep SF4A (sleep disturbance [2]; 100 mg CBN − placebo): 1.47 (0.75, 2.19)
Observed % Achieving Meaningful Clinical Improvement on the PROMIS Sleep SF4A (sleep disturbance [2]; 100 mg CBN): 53.19%
Estimated marginal percentage achieving meaningful clinical improvement on the PROMIS Sleep SF4A (sleep disturbance [2]; 100 mg CBN): 50.56% (38.37%, 66.6%)
Estimated marginal mean, PROMIS Sleep Disturbance SF4A (sleep disturbance [2]; 100 mg CBN, week 1): 10.8
Estimated marginal mean, PROMIS Sleep Disturbance SF4A (sleep disturbance [2]; 100 mg CBN, week 2): 11.33
Estimated marginal mean, PROMIS Sleep Disturbance SF4A (sleep disturbance [2]; 100 mg CBN, week 3): 10.8
Estimated marginal mean, PROMIS Sleep Disturbance SF4A (sleep disturbance [2]; 100 mg CBN, week 4): 10.8
Marginal mean (95% confidence interval), sleep disturbance PGIC (sleep disturbance [3]; 25 mg CBN): 3.81
Odds Ratio (95% Confidence interval), sleep disturbance PGIC (sleep disturbance [3]; 25 mg CBN − placebo): 1.88 (0.98, 3.62)
Parameter estimate for PGIC in sleep disturbance (sleep disturbance [3]; 25 mg CBN): 0.63
Marginal mean (95% confidence interval), sleep disturbance PGIC (sleep disturbance [3]; 50 mg CBN): 3.91
Odds Ratio (95% Confidence interval), sleep disturbance PGIC (sleep disturbance [3]; 50 mg CBN − placebo): 2.35 (1.22, 4.51)
Parameter estimate for PGIC in sleep disturbance (sleep disturbance [3]; 50 mg CBN): 0.85
Marginal mean (95% confidence interval), sleep disturbance PGIC (sleep disturbance [3]; 100 mg CBN): 3.91
Odds Ratio (95% Confidence interval), sleep disturbance PGIC (sleep disturbance [3]; 100 mg CBN − placebo): 2.35 (1.24, 4.44)
Parameter estimate for PGIC in sleep disturbance (sleep disturbance [3]; 100 mg CBN): 0.85
Average time to effect ([4]; 25 mg CBN softgel): 54.9 min
Average time to effect ([4]; 50 mg CBN softgel): 55.5 min
Average time to effect ([4]; 100 mg CBN softgel): 46.4 min
% of participants reporting any side effects ([5]; 25 mg CBN): 6.8%
% of participants reporting any side effects ([5]; 50 mg CBN): 12.9%
% of participants reporting any side effects ([5]; 100 mg CBN): 7.9%
